Data set [1] relates to L. (L.) infantum promastigotes. In words: Mitochondrial membrane electric potential (JC-1, flow cytometry). The format is cell-based, Leishmania (L.) infantum. Particulars: compound 1 169.2 µM, CCCP 10 µM; 2 and 4 h; JC-1 BL-2/BL-1 ratio; vs untreated. As to the method: Promastigotes (2 × 10^6/well) were treated with compound 1 (169.2 µM) for 2 and 4 h, at 24°C. Then, JC-1 (10 µM) was added and the parasites were incubated for 20 min. Fluorescence was measured in a flow cytometer with an excitation wavelength of 488 nm and emission of 530 (BL-1) and 574 nm (BL-2). Mitochondrial membrane potential was established through the ratio of BL-2/BL-1 channels ([19]). Carbonyl cyanide m-chlorophenylhydrazone (CCCP) (10 µM) was employed as positive control and untreated parasites as negative control.
(In general: A flow cytometer gives signals particle by particle.)

Data set [2] has as its system L. (L.) infantum promastigotes. Kind of data set: DNA content / integrity (agarose gel electrophoresis). The format is cell-based, Leishmania (L.) infantum. Particulars: compound 1 169.2 µM, H2O2 10 mM; 24 h; 2% agarose gel. On the procedure:
Promastigotes (1 × 10^7/well) were treated with compound 1 (169.2 μM) in M199 medium supplemented with 10% FBS and 0.25% hemin, pH 7.2, for 24 h at 24°C. Then, the genetic material was extracted using the QIAamp DNA Mini Kit, according to the manufacturer’s instructions. Total DNA quantification was performed in a NanoDrop ND-1000 spectrophotometer (260/280 nm). The purified genetic material (300 ng) was analyzed by electrophoresis for 1 h at […] in a 2% agarose gel with ethidium bromide (0.5 µg/mL). Visualization was performed under UV light in a MiniBIS Pro transilluminator (DNR Bio Imaging System) ([21]). H2O2 (10 mM) was employed as positive control and untreated parasites as negative control ([26]).

The subject of data set [3] is L. (L.) infantum promastigotes. In words: Cell cycle (propidium iodide, flow cytometry). The following applies: 24 h; compound 1 169.2 µM, miltefosine 25 µM. The data set is classed as cell-based, Leishmania (L.) infantum. On the procedure:
Promastigotes (2 × 10^6/well) in exponential phase, were treated with compound 1 (169.2 µM) in M199 medium supplemented with 10% FBS and 0.25% hemin, pH 7.2, for 24 h at 24°C. In sequence, 70% (vol/vol) ice-cold ethanol was used for cell permeabilization overnight at −20°C. Then, the parasites were incubated with propidium iodide (10 µg/mL) and RNase A (20 µg/mL) for 30 min. […] Miltefosine (25 µM) was employed as positive control and untreated parasites as negative control ([25]).

On the set-up of data set [4]: method as in PMID 34695563. The following applies: plasma half-life; cited from earlier work.
Another data set has as its system L. (L.) donovani. Further details: method as in PMID 29061745. Particulars: with subsequent increase in Ca2+ and collapse of mitochondrial membrane potential; cited from earlier work.
Data set [5] relates to L. (L.) infantum promastigotes. The data set is classed as cell-based, Leishmania (L.) infantum. The following applies: compound 1 169.2 µM, sodium azide 10 mM; 2 and 4 h; H2DCFDA; vs untreated. On the procedure: Promastigotes (2 × 10^6/well) were treated with compound 1 (169.2 µM) for 2 and 4 h, at 24°C. Later, H2DCFDA (5 µM) was added and the parasites were incubated for 15 min. Fluorescence was monitored in a spectrofluorometer with excitation and emission wavelengths of 485 and 535 nm, respectively ([19]). Sodium azide (10 mM) was employed as positive control and untreated parasites as negative control.

The test system of data set [6] is L. (L.) infantum promastigotes. In words: Plasma membrane permeability (Sytox Green). The data set is classed as cell-based, Leishmania (L.) infantum. The following applies: compound 1 169.2 µM, Triton X-100 0.5%, up to 4 h. As to the method: Promastigotes (2 × 10^6/well) were pretreated with Sytox Green (1 µM) for 15 min, at 24°C. Then, compound 1 (169.2 µM) was added and the fluorescence was monitored every 20 min up to 4 h in a spectrofluorometer, with excitation and emission wavelengths of 485 and 535 nm, respectively ([17]). Triton X-100 (0.5% vol/vol) was employed as positive control and untreated parasites as negative control ([18]).

Data set [7] concerns Peritoneal macrophages infected with L. (L.) infantum. Kind of data set: Cytokines in infected macrophages (ELISA). The format is cell-based, BALB/c mice. The following applies: positive control 5 µg/mL. On the procedure:
L. (L.) infantum (MHOM/BR/1972/LD) promastigotes were maintained in M199 medium supplemented with 10% FBS and 0.25% hemin, pH 7.2 at 24°C. Amastigotes were isolated from golden hamsters (M. auratus) by differential centrifugation of infected spleens and the parasite’s number was determined according to Stauber ([14]). Peritoneal macrophages were obtained from the peritoneal cavity of BALB/c mice and maintained in RPMI-1640 medium supplemented with 10% FBS, pH 7.2 at 37°C.
Peritoneal macrophages (1 × 10^6/well) were infected with L. (L.) infantum […] (10:1 amastigotes/macrophage) for 24 h, at 37°C with 5% CO2. Subsequently, compound 1 (10 and 60 µM) was added and the incubation followed the same conditions described above. Cell supernatants were collected after 48 and 72 h and the cytokines (IL-4, IL-10, IL-12, and INF-γ) were measured using the BD OptEIA Mouse ELISA set kits, according to the manufacturer’s instructions. Concanavalin A (5 µg/mL) was employed as positive control and untreated cells as negative control.

On to `N#CC(C#N)=NNc1cccc(Cl)c1` [CCCP, Carbonyl cyanide m-chlorophenylhydrazone, reference compound], for which the “mitochondrial membrane electric potential (ΔΨm)” value in data set [1] was “Maximum depolarization”.

Take `OO` [H2O2, reference compound]: the “integrity of the genetic content (DNA)” value in data set [2] is recorded as “DNA fragmentation”.

As for `CCCCCCCCCCCCCCCCOP(=O)([O-])OCC[N+](C)(C)C` [Miltefosine, reference compound], in data set [3], the “Proportion of parasites in different phases of the cell cycle (% ± SD): G0/G1” value came to 53.8 ± 0.1 %, the “Proportion of parasites in different phases of the cell cycle (% ± SD): M/G2” value is reported as 18.1 ± 0.4%, the “Proportion of parasites in different phases of the cell cycle (% ± SD): S” value was determined as 10.5 ± 0.3% and the “Proportion of parasites in different phases of the cell cycle (% ± SD): Sub G0” value worked out at 7.1 ± 0.6 %. In addition, in data set [4], the T1/2 entry is reported as “approximately 126 h”. In addition, the effect on acidocalcisomes entry in the data set with L. (L.) donovani is “alkalinization of acidocalcisomes”.

With `[N-]=[N+]=[N-].[Na+]` [sodium azide, Sodium azide, reference compound], in data set [5], the ROS levels entry is “increased ROS production”.

In the case of Triton X-100 [reference compound], the plasma membrane permeability entry in data set [6] is recorded as “significative permeabilization”.

As to concanavalin A [reference compound], the “production of cytokines (IL-4, IL-10, IL-12, INF-γ)” value in data set [7] is given as “tendency to increase”.
